Test results published in patent US10807992B2, “Single enantiomer antiparasitic compounds” (priority 2017, dated 2020).
Where two headings read alike, the source gives them in different places.

Legend:
[1] = test system: Aedes aegypti; experiment: In vitro contact activity against adult mosquitoes (coated vial)
Description: Aedes aegypti (Louisiana Biologicals Inc., New Orleans, La.) eggs were allowed to hatch, close, and age between 3-5 days in an environmental chamber at 26° C., 80% humidity with light/dark cycles.
For mosquito assays, an aliquot from each compound stock was added to an acetone/triton solution to achieve the desired top doses for the study. Serial dilutions were conducted from the top dose (i.e. 50 ppm) to achieve the desired titration range for EC50 and EC90 determination. The final DMSO concentration in each test vial was 0.5%. A 459 μL aliquot of each compound formulation was transferred to a vial and vials were immediately placed on an unheated roller unit to allow for an even coating of the vial walls. The vials were loosely capped and allowed to dry for a minimum of four hours in a chemical fume hood.
For both contact and ingestion assays, five female Aedes aegypti adults were added to each vial or cage. The test vials for contact assays were held in an environmental chamber at 24° C., 80% humidity with light/dark cycles (12 hours each). The cages for mosquito ingestion assays were held in a temperature-controlled artificial feeding apparatus to allow continual access to organic bovine blood containing the desired concentration of compound. Fresh aliquots of compound-spiked bovine blood were provided daily for the duration of the study.
Mosquitoes showing no movement or mosquitoes that were knocked down were noted as dead. Results from trial 1 and trial 2 contact assays are shown in Tables 12 and 13, respectively and the results from trial 3 mosquito ingestion assay is shown in table 14.
For the mosquito contact and ingestion assays, each replicate contained 5 mosquitoes. For ease of calculation, the two replicates were added to equal a total of 10 mosquitoes.

[2] = test system: Ctenocephalides felis (flea), Ixodidae (tick), and Aedes aegypti (mosquito); experiment: Bio-profiling of C1 racemate and enantiomers, overall conclusions of contact and ingestion assays; conditions: adult ticks, contact assays
Description: 1-[6-[5-(3,5-dichloro-4-fluoro-phenyl)-5-(trifluoromethyl)-4H-isothiazol-3-yl]spiro[1H-isobenzofuran-3,3′-azetidine]-1′-yl]-3,3,3-trifluoro-propan-1-one (referred to herein as C1 racemate) is an isothiazoline compound consisting of two isomers: (R)-1-[6-[5-(3,5-dichloro-4-fluoro-phenyl)-5-(trifluoromethyl)-4H-isothiazol-3-yl]spiro[1H-isobenzofuran-3,3′-azetidine]-1′-yl]-3,3,3-trifluoro-propan-1-one (referred herein as C1 (R) enantiomer) and (S)-1-[6-[5-(3,5-dichloro-4-fluoro-phenyl)-5-(trifluoromethyl)-4H-isothiazol-3-yl]spiro[1H-isobenzofuran-3,3′-azetidine]-1′-yl]-3,3,3-trifluoro-propan-1-one (referred to herein as C1 (S) enantiomer). The racemic compound and the two enantiomers were tested against adult stages of Ctenocephalides felis (flea) Ixodidae (tick), and Aedes aegypti (mosquito). The compounds were solubilized in DMSO or an acetone/triton solution and dose response curves were generated for the individual compounds.
For evaluation of contact activity, coated-substrate (flea) and coated-vial (tick and mosquito) assay procedures were used. For evaluation of flea ingestion activity, an artificial feeding assay procedure was used. Insecticidal activity was evaluated at various time-points for each assay. Dose response curves were generated in duplicate on three independent test occasions (Trial 1-Trial 3) and EC50 and EC90 values were calculated.
Therefore, mortality correction was not performed in the assays. Calculation of EC50 and EC90 values was performed using XLfit. Both EC50 and EC90 values were calculated using the average of the two replicates for each Trial.
The C1 (R) enantiomer, C1 (S) enantiomer, and the C1 racemate were successfully evaluated against flea, tick, and mosquito contact and ingestion in vitro screening assays.

O=C(CC(F)(F)F)N1CC2(C1)OCc1cc(C3=NSC(c4cc(Cl)c(F)c(Cl)c4)(C(F)(F)F)C3)ccc12 (racemic) [C1 racemate, 1-[6-[5-(3,5-dichloro-4-fluoro-phenyl)-5-(trifluoromethyl)-4H-isothiazol-3-yl]spiro[1H-isobenzofuran-3,3′-azetidine]-1′-yl]-3,3,3-trifluoro-propan-1-one]
mortality at 0.049 µM ([1]; 0.5 h, read-out: % Mortality R1 + R2, Trial 1, contact assay, dose 0.049 μM, 0.5 Hr): 0%
mortality at 0.2 µM ([1]; 0.5 h, read-out: % Mortality R1 + R2, Trial 1, contact assay, dose 0.20 μM, 0.5 Hr): 0%
mortality at 0.78 µM ([1]; 0.5 h, read-out: % Mortality R1 + R2, Trial 1, contact assay, dose 0.78 μM, 0.5 Hr): 0%
mortality at 3.125 µM ([1]; 0.5 h, read-out: % Mortality R1 + R2, Trial 1, contact assay, dose 3.125 μM, 0.5 Hr): 0%
mortality at 12.5 µM ([1]; 0.5 h, read-out: % Mortality R1 + R2, Trial 1, contact assay, dose 12.5 μM, 0.5 Hr): 0%
mortality at 50 µM ([1]; 0.5 h, read-out: % Mortality R1 + R2, Trial 1, contact assay, dose 50 μM, 0.5 Hr): 0%
mortality at 0.049 µM ([1]; 0.5 h, read-out: % Mortality R1 + R2, Trial 2, contact assay, dose 0.049 μM, 0.5 Hr): 0%
mortality at 0.2 µM ([1]; 0.5 h, read-out: % Mortality R1 + R2, Trial 2, contact assay, dose 0.20 μM, 0.5 Hr): 0%
mortality at 0.78 µM ([1]; 0.5 h, read-out: % Mortality R1 + R2, Trial 2, contact assay, dose 0.78 μM, 0.5 Hr): 0%
mortality at 3.125 µM ([1]; 0.5 h, read-out: % Mortality R1 + R2, Trial 2, contact assay, dose 3.125 μM, 0.5 Hr): 0%
mortality at 12.5 µM ([1]; 0.5 h, read-out: % Mortality R1 + R2, Trial 2, contact assay, dose 12.5 μM, 0.5 Hr): 0%
mortality at 50 µM ([1]; 0.5 h, read-out: % Mortality R1 + R2, Trial 2, contact assay, dose 50 μM, 0.5 Hr): 0%
mortality at 0.049 µM ([1]; 1 h, read-out: % Mortality R1 + R2, Trial 1, contact assay, dose 0.049 μM, 1 hr): 0%
mortality at 0.2 µM ([1]; 1 h, read-out: % Mortality R1 + R2, Trial 1, contact assay, dose 0.20 μM, 1 hr): 0%
mortality at 0.78 µM ([1]; 1 h, read-out: % Mortality R1 + R2, Trial 1, contact assay, dose 0.78 μM, 1 hr): 0%
mortality at 3.125 µM ([1]; 1 h, read-out: % Mortality R1 + R2, Trial 1, contact assay, dose 3.125 μM, 1 hr): 0%
mortality at 12.5 µM ([1]; 1 h, read-out: % Mortality R1 + R2, Trial 1, contact assay, dose 12.5 μM, 1 hr): 0%
mortality at 50 µM ([1]; 1 h, read-out: % Mortality R1 + R2, Trial 1, contact assay, dose 50 μM, 1 hr): 0%
mortality at 0.049 µM ([1]; 1 h, read-out: % Mortality R1 + R2, Trial 2, contact assay, dose 0.049 μM, 1 hr): 0%
mortality at 0.2 µM ([1]; 1 h, read-out: % Mortality R1 + R2, Trial 2, contact assay, dose 0.20 μM, 1 hr): 0%
mortality at 0.78 µM ([1]; 1 h, read-out: % Mortality R1 + R2, Trial 2, contact assay, dose 0.78 μM, 1 hr): 0%
mortality at 3.125 µM ([1]; 1 h, read-out: % Mortality R1 + R2, Trial 2, contact assay, dose 3.125 μM, 1 hr): 0%
mortality at 12.5 µM ([1]; 1 h, read-out: % Mortality R1 + R2, Trial 2, contact assay, dose 12.5 μM, 1 hr): 0%
mortality at 50 µM ([1]; 1 h, read-out: % Mortality R1 + R2, Trial 2, contact assay, dose 50 μM, 1 hr): 0%
mortality at 0.049 µM ([1]; 6 h, read-out: % Mortality R1 + R2, Trial 1, contact assay, dose 0.049 μM, 6 hr): 0%
mortality at 0.2 µM ([1]; 6 h, read-out: % Mortality R1 + R2, Trial 1, contact assay, dose 0.20 μM, 6 hr): 0%
mortality at 0.78 µM ([1]; 6 h, read-out: % Mortality R1 + R2, Trial 1, contact assay, dose 0.78 μM, 6 hr): 0%
mortality at 3.125 µM ([1]; 6 h, read-out: % Mortality R1 + R2, Trial 1, contact assay, dose 3.125 μM, 6 hr): 0%
mortality at 12.5 µM ([1]; 6 h, read-out: % Mortality R1 + R2, Trial 1, contact assay, dose 12.5 μM, 6 hr): 0%
mortality at 50 µM ([1]; 6 h, read-out: % Mortality R1 + R2, Trial 1, contact assay, dose 50 μM, 6 hr): 80%
mortality at 0.049 µM ([1]; 6 h, read-out: % Mortality R1 + R2, Trial 2, contact assay, dose 0.049 μM, 6 hr): 0%
mortality at 0.2 µM ([1]; 6 h, read-out: % Mortality R1 + R2, Trial 2, contact assay, dose 0.20 μM, 6 hr): 0%
mortality at 0.78 µM ([1]; 6 h, read-out: % Mortality R1 + R2, Trial 2, contact assay, dose 0.78 μM, 6 hr): 0%
mortality at 3.125 µM ([1]; 6 h, read-out: % Mortality R1 + R2, Trial 2, contact assay, dose 3.125 μM, 6 hr): 0%
mortality at 12.5 µM ([1]; 6 h, read-out: % Mortality R1 + R2, Trial 2, contact assay, dose 12.5 μM, 6 hr): 10%
mortality at 50 µM ([1]; 6 h, read-out: % Mortality R1 + R2, Trial 2, contact assay, dose 50 μM, 6 hr): 100%
mortality at 0.049 µM ([1]; 12 h, read-out: % Mortality R1 + R2, Trial 1, contact assay, dose 0.049 μM, 12 hr): 0%
mortality at 0.2 µM ([1]; 12 h, read-out: % Mortality R1 + R2, Trial 1, contact assay, dose 0.20 μM, 12 hr): 0%
mortality at 0.78 µM ([1]; 12 h, read-out: % Mortality R1 + R2, Trial 1, contact assay, dose 0.78 μM, 12 hr): 0%
mortality at 3.125 µM ([1]; 12 h, read-out: % Mortality R1 + R2, Trial 1, contact assay, dose 3.125 μM, 12 hr): 0%
mortality at 12.5 µM ([1]; 12 h, read-out: % Mortality R1 + R2, Trial 1, contact assay, dose 12.5 μM, 12 hr): 0%
mortality at 50 µM ([1]; 12 h, read-out: % Mortality R1 + R2, Trial 1, contact assay, dose 50 μM, 12 hr): 100%
mortality at 0.049 µM ([1]; 12 h, read-out: % Mortality R1 + R2, Trial 2, contact assay, dose 0.049 μM, 12 hr): 0%
mortality at 0.2 µM ([1]; 12 h, read-out: % Mortality R1 + R2, Trial 2, contact assay, dose 0.20 μM, 12 hr): 0%
mortality at 0.78 µM ([1]; 12 h, read-out: % Mortality R1 + R2, Trial 2, contact assay, dose 0.78 μM, 12 hr): 0%
mortality at 3.125 µM ([1]; 12 h, read-out: % Mortality R1 + R2, Trial 2, contact assay, dose 3.125 μM, 12 hr): 0%
mortality at 12.5 µM ([1]; 12 h, read-out: % Mortality R1 + R2, Trial 2, contact assay, dose 12.5 μM, 12 hr): 80%
mortality at 50 µM ([1]; 12 h, read-out: % Mortality R1 + R2, Trial 2, contact assay, dose 50 μM, 12 hr): 100%
mortality at 0.049 µM ([1]; 24 h, read-out: % Mortality R1 + R2, Trial 1, contact assay, dose 0.049 μM, 24 hr): 0%
mortality at 0.2 µM ([1]; 24 h, read-out: % Mortality R1 + R2, Trial 1, contact assay, dose 0.20 μM, 24 hr): 0%
mortality at 0.78 µM ([1]; 24 h, read-out: % Mortality R1 + R2, Trial 1, contact assay, dose 0.78 μM, 24 hr): 0%
mortality at 3.125 µM ([1]; 24 h, read-out: % Mortality R1 + R2, Trial 1, contact assay, dose 3.125 μM, 24 hr): 0%
mortality at 12.5 µM ([1]; 24 h, read-out: % Mortality R1 + R2, Trial 1, contact assay, dose 12.5 μM, 24 hr): 90%
mortality at 50 µM ([1]; 24 h, read-out: % Mortality R1 + R2, Trial 1, contact assay, dose 50 μM, 24 hr): 100%
mortality at 0.049 µM ([1]; 24 h, read-out: % Mortality R1 + R2, Trial 2, contact assay, dose 0.049 μM, 24 hr): 0%
mortality at 0.2 µM ([1]; 24 h, read-out: % Mortality R1 + R2, Trial 2, contact assay, dose 0.20 μM, 24 hr): 0%
mortality at 0.78 µM ([1]; 24 h, read-out: % Mortality R1 + R2, Trial 2, contact assay, dose 0.78 μM, 24 hr): 0%
mortality at 3.125 µM ([1]; 24 h, read-out: % Mortality R1 + R2, Trial 2, contact assay, dose 3.125 μM, 24 hr): 70%
mortality at 12.5 µM ([1]; 24 h, read-out: % Mortality R1 + R2, Trial 2, contact assay, dose 12.5 μM, 24 hr): 100%
mortality at 50 µM ([1]; 24 h, read-out: % Mortality R1 + R2, Trial 2, contact assay, dose 50 μM, 24 hr): 100%
mortality at 0.049 µM ([1]; 48 h, read-out: % Mortality R1 + R2, Trial 1, contact assay, dose 0.049 μM, 48 hr): 40%
mortality at 0.2 µM ([1]; 48 h, read-out: % Mortality R1 + R2, Trial 1, contact assay, dose 0.20 μM, 48 hr): 20%
mortality at 0.78 µM ([1]; 48 h, read-out: % Mortality R1 + R2, Trial 1, contact assay, dose 0.78 μM, 48 hr): 30%
mortality at 3.125 µM ([1]; 48 h, read-out: % Mortality R1 + R2, Trial 1, contact assay, dose 3.125 μM, 48 hr): 90%
mortality at 12.5 µM ([1]; 48 h, read-out: % Mortality R1 + R2, Trial 1, contact assay, dose 12.5 μM, 48 hr): 100%
mortality at 50 µM ([1]; 48 h, read-out: % Mortality R1 + R2, Trial 1, contact assay, dose 50 μM, 48 hr): 100%
mortality at 0.049 µM ([1]; 48 h, read-out: % Mortality R1 + R2, Trial 2, contact assay, dose 0.049 μM, 48 hr): 0%
mortality at 0.2 µM ([1]; 48 h, read-out: % Mortality R1 + R2, Trial 2, contact assay, dose 0.20 μM, 48 hr): 40%
mortality at 0.78 µM ([1]; 48 h, read-out: % Mortality R1 + R2, Trial 2, contact assay, dose 0.78 μM, 48 hr): 0%
mortality at 3.125 µM ([1]; 48 h, read-out: % Mortality R1 + R2, Trial 2, contact assay, dose 3.125 μM, 48 hr): 100%
mortality at 12.5 µM ([1]; 48 h, read-out: % Mortality R1 + R2, Trial 2, contact assay, dose 12.5 μM, 48 hr): 100%
mortality at 50 µM ([1]; 48 h, read-out: % Mortality R1 + R2, Trial 2, contact assay, dose 50 μM, 48 hr): 100%
potency against ticks [2]: excellent potency against ticks
